Measured values as given in patent US6319910A, “Method for inhibiting cyclooxygenase-2 and tumor necrosis factor alpha” (Hospital for Joint Diseases, priority 1998, dated 2001).
Entries after “also recorded” stand apart in the source; their conditions may differ. Where two headings read alike, the source gives them in different places.

Legend:
RAW 264.7 cells [1] = test: Nitrite (NO) production/accumulation in LPS-stimulated RAW 264.7 cells; assay type: cell-based, murine; conditions: LPS 100 ng/ml, 16 hours
Procedure: (§1) Murine macrophages (RAW 263.7 cells) which were grown in Dulbecco's modified eagle medium (DMEM) containing 10% fetal bovine serum, 2 mM glutamine, 50 U/ml penicillin and 50 μg/ml streptomycin, were stimulated with 100 ng/ml LPS to induce both NOS and COX-2 at 16 hr. […] The data presented in FIG. 1 represents mean±SD as examined by T test were n=3.
(§2) The effects of CMTs 1, 2, 3, 5 and 8 on PGE2 and NO accumulation in RAW 264.7 cells were further evaluated as described above for CMT-3. […]

COX-2 [2] = test: COX-2 expression in cells/cartilage (general statement); assay type: cell-based; conditions: words
OA-affected cartilage [3] = test: Spontaneous nitrite/nitric oxide release by OA-affected cartilage (ex vivo organ culture); assay type: cell-based, human; conditions: for Effect on NO production: human OA-affected cartilage, words
Procedure: (§3) Human osteoarthritis affected cartilage spontaneously release nitric oxide (NO) and PGE2 in the medium as previously reported (Amin et al, 1995a; 1997a). The OA-organ cultures were set up as described (Amin et al, 1995a; 1997a). Briefly, total knee articular cartilage from tibial plateau and femoral condyle were harvested from OA-affected patients. The cartilage was mixed and cut into 3-mm discs and 4-6 discs were placed in triplicate or quadruplicate, in a 24-well plate in 2.0 ml of Ham's F-12 medium supplemented with 0.2% endotoxin free human albumin, 10 mM Hepes pH 7.4 and antibiotics in the presence of various modulators, as previously described (Amin et al, 1995a; 1997a). CMT-8 was used at pharmacologically relevant concentrations in DMSO (<0.01% final concentration) as carrier. An equivalent amount of DMSO was also added in the control cultures.
(§4) The p value between control and CMT-8 treated values for PGE2≤0.1 (insignificant) whereas the p values between NMMA treated cartilage and CMT-8 treated cartilage was ≤0.001 (significant). The data are represented as mean±SD as examined by T test when n=3. Data represent±SD value as determined by Student's t test n=4. The P values described are compared with control unstimulated OA-cartilage. The data represents one of the two similar experiments. P values for PGE2 and Nitrite=^a≤0.5; ^b≤0.1; ^c≤0.05; ^d≤0.01.

TNFα = TNFα release in the medium by HEK 293 cells permanently transfected with human proTNFα (ELISA); assay type: cell-based; conditions: words; for Effect on spontaneous TNFα release: FIG. 8, 16 hours
Procedure: HEK 293 cells were transfected with the proTNFα cDNA (wild) to prepare a stable cell line. […] A mutant form of proTNFα cDNA which could not be cleaved by the endogenous TNFα convertase (TACE) to release soluble TNFα was also transfected in separate human HEK 293 cells. The soluble TNFα was estimated by ELISA from the wild type and mutant transfected cells from the medium (FIG. 6).
HEK 293 cells were grown as previously described by American Type Culture Collection (ATCC). […] The HEK 293 cells were incubated with CMT-3 to examine the effects of CMT-3 on TNFα release in the medium.
HEK 293 cells were grown under the conditions previously described by ATCC. Various compounds, including CMT-3 and doxycycline/minocyclines were incubated with proTNFα transfected HEK 293 cells releasing TNFα in the medium at 16 hours. […] Soluble TNFα was estimated by ELISA from the medium.

bovine chondrocytes [4] = test: Nitrite (NO) production in LPS stimulated bovine chondrocytes; assay type: cell-based; conditions: FIGS. 3 and 9; LPS 100 μg/ml; words
RAW 264.7 cells [5] = test: PGE2 production/accumulation in LPS-stimulated RAW 264.7 cells; assay type: cell-based, murine; conditions: for activation at 40 µg/mL: Mus musculus, RAW264.7, 16 h, printed in parentheses = increase
Procedure: as §1, §2

OA-affected cartilage [6] = test: Spontaneous PGE2 release by OA-affected cartilage (ex vivo organ culture); assay type: cell-based, human; conditions: for Effect on PGE2 production: human OA-affected cartilage, words
Procedure: as §3, §4

[7] = words; cited from earlier work
COX-2 [8] = target: T1, COX-2 (Mus musculus, UniProt Q05769); test: COX-2 specific activity in cell-free extracts of LPS-stimulated RAW 264.7 cells (PGE2 by RIA); assay type: biochemical, murine
T1 construct: using total unfractionated cell extracts; endogenous in cells; host or cells: RAW 264.7 cells, LPS-induced; cell-free extract
T1 sequence (Q05769 18-604): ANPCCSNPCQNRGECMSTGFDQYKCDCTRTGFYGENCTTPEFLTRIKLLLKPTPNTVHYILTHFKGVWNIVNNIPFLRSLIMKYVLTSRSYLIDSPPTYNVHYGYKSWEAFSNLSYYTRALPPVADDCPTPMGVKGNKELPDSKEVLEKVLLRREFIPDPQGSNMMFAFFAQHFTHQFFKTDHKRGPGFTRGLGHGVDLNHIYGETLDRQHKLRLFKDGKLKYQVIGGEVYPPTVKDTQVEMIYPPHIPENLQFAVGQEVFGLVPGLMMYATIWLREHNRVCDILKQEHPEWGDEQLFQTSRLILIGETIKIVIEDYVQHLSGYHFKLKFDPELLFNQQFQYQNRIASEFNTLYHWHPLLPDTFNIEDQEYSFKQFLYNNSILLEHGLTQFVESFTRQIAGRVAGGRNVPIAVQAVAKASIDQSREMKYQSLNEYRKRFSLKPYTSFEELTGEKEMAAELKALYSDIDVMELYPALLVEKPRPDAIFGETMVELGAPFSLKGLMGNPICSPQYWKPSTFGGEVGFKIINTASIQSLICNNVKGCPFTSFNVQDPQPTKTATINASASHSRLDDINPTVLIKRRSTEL
Procedure: Raw 264.7 cells were stimulated with LPS and cell-free extracts were prepared as follows. RAW 264.7 cells were induced with LPS (100 ng/ml) in the presence or absence of tetracyclines or hydrocortisone for 14-20 hours. Following induction, the cells were pelleted at 4° C. and resuspended in Tris buffer: 10 mM, pH 7.4 containing 10 μg/ml each of chymostatin, antipain, leupeptin and pepstatin, 1 mM DDT and 1 mM PMSF. Cells were lysed in a Polytron PA 1200 homogenizer (Kinematica AG, Switzerland) with the cocktail of protease inhibitors after 3 cycles of rapid freeze-thawing. The lysate was centrifuged at 18,000 at 4° C. in an eppendorf centrifuge, and the resulting supernatant was used as cell-free extracts. The protein was measured by BCA assay reagent (Pierce, Rockford, Ill.) using BSA as standard. […] The specific enzyme activity was defined as ng of PGE2 released/mg protein/37° C. for 20 minutes.
RAW 264.7 cells were stimulated with 1 μg/ml of LPS for 16 hours and cell-free extracts were prepared as described above. The extracts were incubated with different modulators for 20 minutes at 37° C. before adding the substrate to initiate the enzyme reaction, which was terminated after 30 minutes by heat inactivation. The data represent one of the two experiments, the PGE2 analysis from each sample was done in triplicates n=3. The p value is a comparison between control and experimentals.

iNOS mRNA = conditions: Amin et al, 1997b; words; cited from earlier work
bovine chondrocytes [9] = test: PGE2 production in LPS stimulated bovine chondrocytes (radioimmunoassay); assay type: cell-based; conditions: FIGS. 3 and 9, words; for Effect on PGE2 production: LPS 100 μg/ml, 72 hrs
Procedure: After 48 hours the medium was changed and the cells were incubated with CMT-3 or N-monomethyl arginine (NMMA) for 2 hours before stimulating them with 100 μg/ml LPS. DMSO was used as a carrier for the modulators and the DMSO concentration was maintained (<0.01% v/v) in the cultures. Equivalent amounts of DMSO was also added to the control cultures. The levels of COX-2 dependent PGE2 release was assayed after 72 hrs by radioimmunoassay. […] The data represents mean±SD which was evaluated by T test where n=3.

OA = conditions: prophylactic administration; Yu et al (1992); words; cited from earlier work
NOS = conditions: background; words; cited from earlier work
OA-affected cartilage [10] = conditions: Amin et al, 1997a; words; cited from earlier work
OA-affected cartilage [11] = conditions: Amin et al, 1997a; words; cited from earlier work; remark: listed apart in the source
arthritis = conditions: mild and moderate arthritis; Tilley et al, 1995; words; cited from earlier work

SMILES: C[C@H]1c2cccc(O)c2C(O)=C2C(=O)[C@]3(O)C(O)=C(C(N)=O)C(=O)C[C@@H]3[C@@H](O)[C@@H]21 [CMT-8, 6-α-deoxy-5-hydroxy-4-dedimethylaminotetracycline]
- Nitrite (RAW 264.7 cells [1]; Experiment I, compound 10 μg/ml): 36.0 µM
- inhibition at 10 µg/mL (RAW 264.7 cells [1]; Mus musculus, RAW264.7, 16 h, Experiment I, compound 10 μg/ml): 28%
- Effect on COX-2 expression (COX-2 [2]): inhibits COX-2 expression and PGE2 production
- inhibition at 5 µg/mL (OA-affected cartilage [3]; Homo sapiens, Table 2, 5 μg/ml): 40%
- Nitrite (OA-affected cartilage [3]; Table 2, 5 μg/ml): 47.0 ± 22.0 µM
- Effect on NO production (OA-affected cartilage [3]): inhibits NOS and NO production; also recorded: significantly inhibit; also recorded: inhibited both NO and PGE2 production; also recorded: inhibiting NO production
- Effect on spontaneous TNFα release (TNFα): inhibit the spontaneous TNFα release
- Inhibition of TNFα (summary statement) (TNFα; HEK 293 cells transfected with proTNFα cDNA, low levels): inhibiting TNFα
- Effect on NO production (bovine chondrocytes [4]): inhibit NO and PGE2 production
- PGE2 accumulation (RAW 264.7 cells [5]; 16 h, 10 ug/mL): 27.2 ± 3.4 ng/mL
- PGE2 accumulation (RAW 264.7 cells [5]; Experiment II, LPS 100 ng/ml, compound 10 μg/ml, 16 hours): 24.3 ± 4.5 ng/mL
- inhibition at 5 µg/mL (OA-affected cartilage [6]; Homo sapiens, Table 2, 5 μg/ml): 58%
- PGE2 (OA-affected cartilage [6]; Table 2, 5 μg/ml): 94.7 ± 39.2 ng/mL
- Effect on PGE2 production (OA-affected cartilage [6]): inhibits PGE2 in a dose dependent manner; also recorded: significantly inhibit; also recorded: inhibited both NO and PGE2 production; also recorded: inhibits COX-2 expression and PGE2 production
- Antimicrobial activity [7]: no antimicrobial activity
- Effect on specific activity of COX-2 (COX-2 [8]; CMT-3 27 μM, CMT-8 27 μM, aspirin 56 μM, indomethacin 28 μM, words): significantly inhibited the specific activity of COX-2
- COX-2 Specific Activity (COX-2 [8]; Table 3, cell-free extracts, 10 μg (aspirin amount not given)): 4.3 ± 0.1 PGE2 ng/mg protein
- Effect on iNOS mRNA expression (iNOS mRNA): inhibiting iNOS mRNA expression
- Effect on PGE2 production (bovine chondrocytes [9]): inhibit NO and PGE2 production
- Effect on L-NMMA induced PGE2 up-regulation (bovine chondrocytes [9]): inhibits the L-NMMA induced PGE2 up-regulation

SMILES: C[C@H]1c2cccc(O)c2C(O)=C2C(=O)[C@]3(O)C(O)=C(C(N)=O)C(=O)[C@@H](N(C)C)[C@@H]3[C@@H](O)[C@@H]21 [Doxycycline, doxycycline, reference compound]
- Effect on COX-2 expression (COX-2 [2]): up-regulate COX-2 expression and PGE2 production
- Effect on NO production (OA-affected cartilage [3]): inhibit NO production
- Effect on spontaneous TNFα release (TNFα): inhibit TNFα release
- Effect on PGE2 production (OA-affected cartilage [6]): up-regulate COX-2 expression and PGE2 production
- Severity of OA (OA): markedly reduced the severity of OA

SMILES: CN=C(N)NCCC[C@H](N)C(=O)O [L-NMMA, N^G -monomethyl-L-arginine acetate, reference compound]
- Effect on NO production (RAW 264.7 cells [1]; FIG. 1, words): blocks NO production
- Effect on PGE2 production (NOS): augmenting PGE2 production
- Effect on production of NO (NOS): inhibit the production of NO
- Effect on NOS and NO production (OA-affected cartilage [10]): inhibits NOS and NO production
- Effect on NO production (bovine chondrocytes [4]): inhibits NO production
- Effect on PGE2 production (RAW 264.7 cells [5]; FIG. 1, LPS 100 ng/ml, 16 hours, words): augments PGE2 production
- Effect on PGE2 production (OA-affected cartilage [11]): augments PGE2 production
- Effect on PGE2 production (bovine chondrocytes [9]): augments PGE2 production

SMILES: CN(C)c1ccc(O)c2c1C[C@H]1C[C@H]3[C@H](N(C)C)C(O)=C(C(N)=O)C(=O)[C@@]3(O)C(O)=C1C2=O [Minocycline, minocycline, reference compound]
- Nitrite (RAW 264.7 cells [1]; Experiment I, minocycline 40 μg/ml): 4.8 µM
- Nitrite (RAW 264.7 cells [1]; Experiment II, minocycline 40 μg/ml): 12.9 µM
- inhibition at 40 µg/mL (RAW 264.7 cells [1]; Mus musculus, RAW264.7, 16 h, read-out: Nitrite % Inhibition, Experiment I, minocycline 40 μg/ml): 90%
- inhibition at 40 µg/mL (RAW 264.7 cells [1]; Mus musculus, RAW264.7, 16 h, read-out: Nitrite % Inhibition, Experiment II, minocycline 40 μg/ml): 41%
- Effect on COX-2 expression (COX-2 [2]): up-regulate COX-2 expression and PGE2 production
- inhibition at 10 µg/mL (OA-affected cartilage [3]; Homo sapiens, Table 2, minocycline 10 μg/ml): 30%
- Nitrite (OA-affected cartilage [3]; Table 2, minocycline 10 μg/ml): 66.0 ± 17.0 µM
- Effect on NO production (OA-affected cartilage [3]; listed as minocycline): suppresses NO production; also recorded: inhibit NO production
- Effect on spontaneous TNFα release (TNFα): inhibit TNFα release
- Safety and efficacy in arthritis (arthritis): safe and effective for patients with mild and moderate arthritis
- PGE2 accumulation (RAW 264.7 cells [5]; Experiment I, LPS 100 ng/ml, minocycline 40 μg/ml, 16 hours): 43.7 ± 8.6 ng/mL
- PGE2 accumulation (RAW 264.7 cells [5]; Experiment II, LPS 100 ng/ml, minocycline 40 μg/ml, 16 hours): 49.1 ± 10.0 ng/mL
- activation at 40 µg/mL (RAW 264.7 cells [5]; read-out: PGE2 % (Increase), Experiment I, LPS 100 ng/ml, minocycline 40 μg/ml): 172%
- activation at 40 µg/mL (RAW 264.7 cells [5]; read-out: PGE2 % (Increase), Experiment II, LPS 100 ng/ml, minocycline 40 μg/ml): 257%
- PGE2 (OA-affected cartilage [6]; Table 2, minocycline 10 μg/ml): 314.6 ± 58.4 ng/mL
- Effect on PGE2 production (OA-affected cartilage [6]): stimulates PGE2 production
- Effect on PGE2 production (OA-affected cartilage [6]; listed as minocycline): up-regulate COX-2 expression and PGE2 production
